Reference: ChEMBL document CHEMBL1144473, “Selective inhibition of carboxylesterases by isatins, indole-2,3-diones” (J Med Chem, 2007)
Activity calls are given as the source filed them. No cut-off for these calls is given here.

Key:
[1] = Inhibition of human intestinal carboxylesterase expressed in sf21 cells up to 100 uM
[2] = Inhibition of rabbit liver carboxylesterase expressed in sf21 cells up to 100 uM; settings: Oryctolagus cuniculus
[3] = biological target: T1, Liver carboxylesterase 1 (Homo sapiens, UniProt P23141); assay: Inhibition of human liver CE1 expressed in sf21 cells up to 100 uM
T1 sequence (P23141 whole entry): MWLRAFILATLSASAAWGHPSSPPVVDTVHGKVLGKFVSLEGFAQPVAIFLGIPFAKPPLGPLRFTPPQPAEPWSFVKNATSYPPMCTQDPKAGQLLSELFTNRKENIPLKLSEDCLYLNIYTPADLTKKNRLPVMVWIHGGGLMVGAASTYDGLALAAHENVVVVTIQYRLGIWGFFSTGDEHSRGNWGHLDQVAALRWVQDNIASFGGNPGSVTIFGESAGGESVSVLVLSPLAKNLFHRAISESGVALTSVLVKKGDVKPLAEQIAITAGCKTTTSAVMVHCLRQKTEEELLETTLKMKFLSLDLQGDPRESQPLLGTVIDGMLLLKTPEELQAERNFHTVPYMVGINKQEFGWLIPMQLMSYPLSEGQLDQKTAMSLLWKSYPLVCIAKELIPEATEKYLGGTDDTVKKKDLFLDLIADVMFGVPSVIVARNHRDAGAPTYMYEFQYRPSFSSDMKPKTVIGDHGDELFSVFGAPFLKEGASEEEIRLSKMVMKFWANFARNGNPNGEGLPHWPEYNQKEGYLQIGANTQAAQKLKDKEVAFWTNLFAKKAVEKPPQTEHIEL

[4] = Inhibition of human intestinal carboxylesterase expressed in sf21 cells
[5] = biological target: Acetylcholinesterase (Homo sapiens, UniProt P22303)
Acetylcholinesterase, sequence (P22303 whole entry): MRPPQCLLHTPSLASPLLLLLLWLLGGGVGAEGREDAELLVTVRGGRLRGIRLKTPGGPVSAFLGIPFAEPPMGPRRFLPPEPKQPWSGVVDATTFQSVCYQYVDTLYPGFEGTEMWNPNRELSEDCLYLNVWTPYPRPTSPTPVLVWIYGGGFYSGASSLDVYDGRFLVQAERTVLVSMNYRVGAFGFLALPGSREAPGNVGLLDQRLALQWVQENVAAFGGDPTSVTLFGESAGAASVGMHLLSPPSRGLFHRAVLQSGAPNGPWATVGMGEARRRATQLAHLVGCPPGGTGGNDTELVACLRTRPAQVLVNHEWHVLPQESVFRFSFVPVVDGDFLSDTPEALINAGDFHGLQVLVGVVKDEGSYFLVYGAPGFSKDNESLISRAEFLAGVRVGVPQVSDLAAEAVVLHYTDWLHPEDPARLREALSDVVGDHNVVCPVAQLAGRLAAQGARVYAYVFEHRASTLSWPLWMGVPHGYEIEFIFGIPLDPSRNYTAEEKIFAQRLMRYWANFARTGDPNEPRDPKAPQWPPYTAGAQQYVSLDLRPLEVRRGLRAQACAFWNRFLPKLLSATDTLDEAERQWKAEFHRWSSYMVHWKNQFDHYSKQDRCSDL

[6] = biological target: T1, Liver carboxylesterase 1; assay: Inhibition of human liver CE1 expressed in sf21 cells; format: cell-based
[7] = biological target: Cholinesterase (Homo sapiens, UniProt P06276)
Cholinesterase, sequence (P06276 whole entry): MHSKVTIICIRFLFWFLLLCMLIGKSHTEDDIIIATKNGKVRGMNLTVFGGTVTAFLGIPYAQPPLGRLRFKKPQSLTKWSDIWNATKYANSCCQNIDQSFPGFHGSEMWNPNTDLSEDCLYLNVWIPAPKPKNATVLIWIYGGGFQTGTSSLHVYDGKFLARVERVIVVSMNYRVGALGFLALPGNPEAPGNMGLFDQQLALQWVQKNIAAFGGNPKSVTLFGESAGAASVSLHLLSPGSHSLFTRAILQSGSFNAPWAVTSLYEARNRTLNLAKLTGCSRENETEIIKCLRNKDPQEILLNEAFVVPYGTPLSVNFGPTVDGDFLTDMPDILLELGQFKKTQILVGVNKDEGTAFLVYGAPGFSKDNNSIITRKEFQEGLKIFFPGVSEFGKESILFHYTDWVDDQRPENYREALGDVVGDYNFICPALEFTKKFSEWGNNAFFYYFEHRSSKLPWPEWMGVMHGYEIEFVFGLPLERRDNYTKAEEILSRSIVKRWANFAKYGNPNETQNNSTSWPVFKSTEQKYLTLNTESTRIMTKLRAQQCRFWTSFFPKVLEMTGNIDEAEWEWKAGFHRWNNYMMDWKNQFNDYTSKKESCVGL

[8] = Inhibition of rabbit liver carboxylesterase expressed in sf21 cells; format: cell-based, Oryctolagus cuniculus

O=C1CC(=O)c2ccccc21
Activity [1]: inactive
Activity [2]: inactive
Activity [3]: Not Active

O=C1Nc2ccccc2/C1=N/O
Activity [1]: inactive
Activity [2]: inactive
Activity [3]: Not Active

c1ccc2[nH]ccc2c1 [INDOLE]
Activity [1]: inactive
Activity [2]: inactive
Activity [3]: Not Active

C1=Cc2ccccc2C1 [INDENE]
Activity [1]: inactive
Activity [2]: inactive
Activity [3]: Not Active

c1ccc2c(c1)CCC2
Activity [1]: inactive
Activity [2]: inactive
Activity [3]: Not Active

N/N=C1\C(=O)Nc2ccccc21
Activity [1]: inactive
Activity [2]: inactive
Activity [3]: Not Active

O=C1c2ccccc2C(=O)N1c1ccccc1 [N-PHENYL-PHTHALIMIDE]
Activity [1]: inactive
Activity [2]: inactive
Activity [3]: Not Active

COc1cc(NCN2C(=O)C(=O)c3ccccc32)cc(OC)c1OC
Ki [4]: 2.69 µM
Ki [5]: > 100 µM
Ki [6]: 19.5 µM
Ki [7]: > 100 µM
Ki [8]: > 100 µM

c1ccc2c(c1)CCN2 [INDOLINE]
Activity [1]: inactive
Activity [2]: inactive
Activity [3]: Not Active

O=C1NC(=O)c2ccccc21 [PHTHALIMIDE]
Activity [1]: inactive
Activity [2]: inactive
Activity [3]: Not Active
